Test system: plants
Test: Test D pre-emergence, other plants of Tables D1 and D3
Format: in vivo
Conditions: preemergent, 20 DAA
Summary of the method: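 Seeds treated with herbicide safener; sown in soil; glasshouse, 16 h light, 65% humidity. Sprayed day 1 (pre) or ~day 12 (post). Spray in 0.2% v/v adjuvant. Scored 0–100 damage: 20 DAA pre, 15 d post.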

COc1c(F)cccc1NC(=O)C1C(=O)N(C)CC1c1cc(C(F)(F)F)n(C)n1 (racemic) [Compound 18]
damage to plant (100=total damage to plant; 0=no damage to plant), ABUTH (rate 15): 0
damage to plant (100=total damage to plant; 0=no damage to plant), ABUTH (rate 30): 0
damage to plant (100=total damage to plant; 0=no damage to plant), ABUTH (rate 60): 0
damage to plant (100=total damage to plant; 0=no damage to plant), ABUTH (rate 130): 0
damage to plant (100=total damage to plant; 0=no damage to plant), ABUTH (rate 250): 10
damage to plant (100=total damage to plant; 0=no damage to plant), ABUTH (rate 500): 30
damage to plant (100=total damage to plant; 0=no damage to plant), AMARE (rate 15): 0
damage to plant (100=total damage to plant; 0=no damage to plant), AMARE (rate 30): 0
damage to plant (100=total damage to plant; 0=no damage to plant), AMARE (rate 60): 0
damage to plant (100=total damage to plant; 0=no damage to plant), AMARE (rate 130): 0
damage to plant (100=total damage to plant; 0=no damage to plant), AMARE (rate 250): 0
damage to plant (100=total damage to plant; 0=no damage to plant), AMARE (rate 500): 0
damage to plant (100=total damage to plant; 0=no damage to plant), BIDPI (rate 15): 0
damage to plant (100=total damage to plant; 0=no damage to plant), BIDPI (rate 30): 0
damage to plant (100=total damage to plant; 0=no damage to plant), BIDPI (rate 60): 0
damage to plant (100=total damage to plant; 0=no damage to plant), BIDPI (rate 130): 0
damage to plant (100=total damage to plant; 0=no damage to plant), BIDPI (rate 250): 0
damage to plant (100=total damage to plant; 0=no damage to plant), BIDPI (rate 500): 0
damage to plant (100=total damage to plant; 0=no damage to plant), BRAPL (rate 15): 10
damage to plant (100=total damage to plant; 0=no damage to plant), BRAPL (rate 30): 60
damage to plant (100=total damage to plant; 0=no damage to plant), BRAPL (rate 60): 70
damage to plant (100=total damage to plant; 0=no damage to plant), BRAPL (rate 130): 80
damage to plant (100=total damage to plant; 0=no damage to plant), BRAPL (rate 250): 80
damage to plant (100=total damage to plant; 0=no damage to plant), BRAPL (rate 500): 90
damage to plant (100=total damage to plant; 0=no damage to plant), CYPES (rate 15): 0
damage to plant (100=total damage to plant; 0=no damage to plant), CYPES (rate 30): 0
damage to plant (100=total damage to plant; 0=no damage to plant), CYPES (rate 60): 0
damage to plant (100=total damage to plant; 0=no damage to plant), CYPES (rate 130): 0
damage to plant (100=total damage to plant; 0=no damage to plant), CYPES (rate 250): 0
damage to plant (100=total damage to plant; 0=no damage to plant), CYPES (rate 500): 0
damage to plant (100=total damage to plant; 0=no damage to plant), DIGSA (rate 15): 0
damage to plant (100=total damage to plant; 0=no damage to plant), DIGSA (rate 30): 80
damage to plant (100=total damage to plant; 0=no damage to plant), DIGSA (rate 60): 90
damage to plant (100=total damage to plant; 0=no damage to plant), DIGSA (rate 130): 90
damage to plant (100=total damage to plant; 0=no damage to plant), DIGSA (rate 250): 90
damage to plant (100=total damage to plant; 0=no damage to plant), DIGSA (rate 500): 100
damage to plant (100=total damage to plant; 0=no damage to plant), ECHCG (rate 15): 0
damage to plant (100=total damage to plant; 0=no damage to plant), ECHCG (rate 30): 30
damage to plant (100=total damage to plant; 0=no damage to plant), ECHCG (rate 60): 70
damage to plant (100=total damage to plant; 0=no damage to plant), ECHCG (rate 130): 90
damage to plant (100=total damage to plant; 0=no damage to plant), ECHCG (rate 250): 90
damage to plant (100=total damage to plant; 0=no damage to plant), ECHCG (rate 500): 90
damage to plant (100=total damage to plant; 0=no damage to plant), ELEIN (rate 15): 0
damage to plant (100=total damage to plant; 0=no damage to plant), ELEIN (rate 30): 0
damage to plant (100=total damage to plant; 0=no damage to plant), ELEIN (rate 60): 0
damage to plant (100=total damage to plant; 0=no damage to plant), ELEIN (rate 130): 0
damage to plant (100=total damage to plant; 0=no damage to plant), ELEIN (rate 250): 0
damage to plant (100=total damage to plant; 0=no damage to plant), ELEIN (rate 500): 0
damage to plant (100=total damage to plant; 0=no damage to plant), EPHHL (rate 15): 0
damage to plant (100=total damage to plant; 0=no damage to plant), EPHHL (rate 30): 0
damage to plant (100=total damage to plant; 0=no damage to plant), EPHHL (rate 60): 0
damage to plant (100=total damage to plant; 0=no damage to plant), EPHHL (rate 130): 0
damage to plant (100=total damage to plant; 0=no damage to plant), EPHHL (rate 250): 10
damage to plant (100=total damage to plant; 0=no damage to plant), EPHHL (rate 500): 20
damage to plant (100=total damage to plant; 0=no damage to plant), GLXMA (rate 15): 0
damage to plant (100=total damage to plant; 0=no damage to plant), GLXMA (rate 30): 0
damage to plant (100=total damage to plant; 0=no damage to plant), GLXMA (rate 60): 0
damage to plant (100=total damage to plant; 0=no damage to plant), GLXMA (rate 130): 0
damage to plant (100=total damage to plant; 0=no damage to plant), GLXMA (rate 250): 0
damage to plant (100=total damage to plant; 0=no damage to plant), GLXMA (rate 500): 0
damage to plant (100=total damage to plant; 0=no damage to plant), IPOHE (rate 15): 0
damage to plant (100=total damage to plant; 0=no damage to plant), IPOHE (rate 30): 0
damage to plant (100=total damage to plant; 0=no damage to plant), IPOHE (rate 60): 0
damage to plant (100=total damage to plant; 0=no damage to plant), IPOHE (rate 130): 0
damage to plant (100=total damage to plant; 0=no damage to plant), IPOHE (rate 250): 0
damage to plant (100=total damage to plant; 0=no damage to plant), IPOHE (rate 500): 0
damage to plant (100=total damage to plant; 0=no damage to plant), ORYSA (rate 15): 0
damage to plant (100=total damage to plant; 0=no damage to plant), ORYSA (rate 30): 0
damage to plant (100=total damage to plant; 0=no damage to plant), ORYSA (rate 60): 0
damage to plant (100=total damage to plant; 0=no damage to plant), ORYSA (rate 130): 0
damage to plant (100=total damage to plant; 0=no damage to plant), ORYSA (rate 250): 0
damage to plant (100=total damage to plant; 0=no damage to plant), ORYSA (rate 500): 0
damage to plant (100=total damage to plant; 0=no damage to plant), PANMI (rate 15): 0
damage to plant (100=total damage to plant; 0=no damage to plant), PANMI (rate 30): 0
damage to plant (100=total damage to plant; 0=no damage to plant), PANMI (rate 60): 0
damage to plant (100=total damage to plant; 0=no damage to plant), PANMI (rate 130): 0
damage to plant (100=total damage to plant; 0=no damage to plant), PANMI (rate 250): 0
damage to plant (100=total damage to plant; 0=no damage to plant), PANMI (rate 500): 0
damage to plant (100=total damage to plant; 0=no damage to plant), SETFA (rate 15): 0
damage to plant (100=total damage to plant; 0=no damage to plant), SETFA (rate 30): 0
damage to plant (100=total damage to plant; 0=no damage to plant), SETFA (rate 60): 80
damage to plant (100=total damage to plant; 0=no damage to plant), SETFA (rate 130): 90
damage to plant (100=total damage to plant; 0=no damage to plant), SETFA (rate 250): 90
damage to plant (100=total damage to plant; 0=no damage to plant), SETFA (rate 500): 90
damage to plant (100=total damage to plant; 0=no damage to plant), SORVU (rate 15): 0
damage to plant (100=total damage to plant; 0=no damage to plant), SORVU (rate 30): 0
damage to plant (100=total damage to plant; 0=no damage to plant), SORVU (rate 60): 0
damage to plant (100=total damage to plant; 0=no damage to plant), SORVU (rate 130): 0
damage to plant (100=total damage to plant; 0=no damage to plant), SORVU (rate 250): 0
damage to plant (100=total damage to plant; 0=no damage to plant), SORVU (rate 500): 10

— patent publication US20220281848A1, “PYRAZOLE-SUBSTITUTED PYRROLIDINONES AS HERBICIDES” (FMC Corporation, priority 2019, published 2022)
